From patent US11000033B2, “Ketone or oxime compound, and herbicide” (NISSAN CHEMICAL CORPORATION, priority 2014, dated 2021)

Experiments:
Format in all cases: in vivo
[1] = system: Monochoria vaginalis; experiment: Test Example 2: herbicidal activity, application during weed generation in submerged conditions (symbol C); conditions: Table 23; application herbicide amount 320 g/ha; grade 0-5 by criteria of Test Example 1
In short: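 Visual herbicidal ratings, taken three weeks after dosing, reflect post-emergence water-surface application to seedlings at one to two leaves. Conditions: co-sown weeds in alluvial soil flooded to 4 cm, greenhouse held at 25° C. to 30° C.; compound given as water-diluted emulsion at a fixed herbicide amount.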

[2] = system: directly sowed rice plant; experiment: Test Example 3: effect on crop by foliage application, Wagner pot (symbol b); conditions: application herbicide amount 320 g/ha
In short: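 Wagner pot (1/10000 are), alluvial soil, submerged 0.1–0.5 cm; sown E. crus-galli var. crus-galli, L. chinensis, C. difformis, rice; greenhouse 25–30 °C.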

[3] = system: Digitaria ciliaris; experiment: Test Example 4: herbicidal effect by soil treatment (symbol F); conditions: application herbicide amount 320 g/ha
In short: (§1)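 Seeds were sown in sterilized diluvial soil, covered with about 1.5 cm of soil, and the soil surface was sprayed with a water-diluted emulsion of the compound at a predetermined rate. Plants grew in a greenhouse at 25° C. to 30° C.; effects were scored visually 3 weeks after application.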

[4] = system: Echinochloa crus-galli var. crus-galli; experiment: Test Example 4: herbicidal effect by soil treatment (symbol H); conditions: application herbicide amount 320 g/ha
In short: as §1

[5] = system: Avena fatua; experiment: Test Example 4: herbicidal effect by soil treatment (symbol I); conditions: application herbicide amount 320 g/ha
In short: as §1

[6] = system: Alopecurus myosuroides; experiment: Test Example 4: herbicidal effect by soil treatment (symbol J); conditions: application herbicide amount 320 g/ha
In short: as §1

[7] = system: Lolium multiflorum Lam.; experiment: Test Example 4: herbicidal effect by soil treatment (symbol K); conditions: application herbicide amount 320 g/ha
In short: as §1

[8] = system: rice; experiment: Test Example 4: effect on crop by soil treatment (symbol b); conditions: application herbicide amount 320 g/ha
In short: (§2)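 Soil-treatment setup: crop and weed seeds were spot-sown into sterilized diluvial soil, then buried beneath approximately 1.5 cm of it, and the boxes were housed in a 25–30° C. greenhouse.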

[9] = system: beet; experiment: Test Example 4: effect on crop by soil treatment (symbol f); conditions: application herbicide amount 320 g/ha
In short: as §2

[10] = system: rapeseed; experiment: Test Example 4: effect on crop by soil treatment (symbol g); conditions: application herbicide amount 320 g/ha
In short: as §2

[11] = system: Digitaria ciliaris; experiment: Test Example 5: herbicidal effect by foliage application, plastic box (symbol F); conditions: 320 g/ha, 3 weeks after application
In short: (§3)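 Post-emergence spray; diluvial soil (sterilized), ~1.5 cm seed cover; greenhouse 25–30° C; 14-day-old plants; water-diluted emulsion at predetermined dose; visual score at 3 wk post-treatment.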

[12] = system: Avena fatua; experiment: Test Example 5: herbicidal effect by foliage application, plastic box (symbol I); conditions: 320 g/ha, 3 weeks after application
In short: as §3

[13] = system: Lolium multiflorum Lam.; experiment: Test Example 5: herbicidal effect by foliage application, plastic box (symbol K); conditions: 320 g/ha, 3 weeks after application
In short: as §3

[14] = system: Apera spica-venti; experiment: Test Example 5: herbicidal effect by foliage application, plastic box (symbol L); conditions: 320 g/ha, 3 weeks after application
In short: as §3

[15] = system: Abutilon theophrasti; experiment: Test Example 5: herbicidal effect by foliage application, plastic box (symbol M); conditions: 320 g/ha, 3 weeks after application
In short: as §3

[16] = system: Amaranthus retroflexus; experiment: Test Example 5: herbicidal effect by foliage application, plastic box (symbol N); conditions: 320 g/ha, 3 weeks after application
In short: as §3

[17] = system: Chenopodium album; experiment: Test Example 5: herbicidal effect by foliage application, plastic box (symbol O); conditions: 320 g/ha, 3 weeks after application
In short: as §3

[18] = system: Stellaria media; experiment: Test Example 5: herbicidal effect by foliage application, plastic box (symbol P); conditions: 320 g/ha, 3 weeks after application
In short: as §3

[19] = system: Galium spurium; experiment: Test Example 5: herbicidal effect by foliage application, plastic box (symbol Q); conditions: 320 g/ha, 3 weeks after application
In short: as §3

[20] = system: Veronica persica; experiment: Test Example 5: herbicidal effect by foliage application, plastic box (symbol R); conditions: 320 g/ha, 3 weeks after application
In short: as §3

[21] = system: wheat; experiment: Test Example 5: effect on crop by foliage application, plastic box (symbol e); conditions: 320 g/ha, 3 weeks after application
In short: (§4)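 Soil: sterilized diluvial. Container: plastic box, 21 × 13 cm, 7 cm deep. Sowing: spot-like, ~1.5 cm cover. Growth: greenhouse, 25° C. to 30° C.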

[22] = system: rapeseed; experiment: Test Example 5: effect on crop by foliage application, plastic box (symbol g); conditions: 320 g/ha, 3 weeks after application
In short: as §4

Q: Which results are given for `CON=C(C)CC1CC(O)=C(c2c(F)cc(C)cc2OC)C1=O` (stereo not drawn) [6-108]?
A: Herbicidal effect grade, C: Monochoria vaginalis [1]: 2 (Herbicidal ratio of 20% or higher and lower than 40%); effect on crop b (directly sowed rice plant), grade 0-5 [2]: 5 (Herbicidal ratio of 90% or more (almost completely withered)); Herbicidal effect grade, F: Digitaria ciliaris [3]: 5 (Herbicidal ratio of 90% or more (almost completely withered)); Herbicidal effect grade, H: Echinochloa crus-galli var. crus-galli [4]: 5 (Herbicidal ratio of 90% or more (almost completely withered)); Herbicidal effect grade, I: Avena fatua [5]: 3 (Herbicidal ratio of 40% or higher and lower than 70%); Herbicidal effect grade, J: Alopecurus myosuroides [6]: 3 (Herbicidal ratio of 40% or higher and lower than 70%); Herbicidal effect grade, K: Lolium multiflorum Lam. [7]: 5 (Herbicidal ratio of 90% or more (almost completely withered)); Effect on crop grade, b: directly sowed rice plant [8]: 5 (Herbicidal ratio of 90% or more (almost completely withered)); Effect on crop grade, f: beet [9]: 0 (Herbicidal ratio of 5% or lower (almost no effect)); Effect on crop grade, g: rapeseed [10]: 4 (Herbicidal ratio of 70% or higher and lower than 90%); F: Digitaria ciliaris, herbicidal effect (criteria of Test Example 1) [11]: 5 (Herbicidal ratio of 90% or more (almost completely withered)); I: Avena fatua, herbicidal effect (criteria of Test Example 1) [12]: 5 (Herbicidal ratio of 90% or more (almost completely withered)); K: Lolium multiflorum Lam., herbicidal effect (criteria of Test Example 1) [13]: 5 (Herbicidal ratio of 90% or more (almost completely withered)); L: Apera spica-venti, herbicidal effect (criteria of Test Example 1) [14]: 5 (Herbicidal ratio of 90% or more (almost completely withered)); M: Abutilon theophrasti, herbicidal effect (criteria of Test Example 1) [15]: 5 (Herbicidal ratio of 90% or more (almost completely withered)); N: Amaranthus retroflexus, herbicidal effect (criteria of Test Example 1) [16]: 5 (Herbicidal ratio of 90% or more (almost completely withered)); O: Chenopodium album, herbicidal effect (criteria of Test Example 1) [17]: 2 (Herbicidal ratio of 20% or higher and lower than 40%); P: Stellaria media, herbicidal effect (criteria of Test Example 1) [18]: 3 (Herbicidal ratio of 40% or higher and lower than 70%); Q: Galium spurium, herbicidal effect (criteria of Test Example 1) [19]: 3 (Herbicidal ratio of 40% or higher and lower than 70%); R: Veronica persica, herbicidal effect (criteria of Test Example 1) [20]: 2 (Herbicidal ratio of 20% or higher and lower than 40%); e: wheat, effect on crop (criteria of Test Example 1) [21]: 3 (Herbicidal ratio of 40% or higher and lower than 70%); g: rapeseed, effect on crop (criteria of Test Example 1) [22]: 5 (Herbicidal ratio of 90% or more (almost completely withered))

Q: How did the “Herbicidal effect grade, C: Monochoria vaginalis” value [1] turn out when `CON=C(C)CC1CC(O)=C(c2c(C)cc(-c3ccc(Cl)cc3Cl)cc2C)C1=O` (stereo not drawn) [6-088] was run?
A: 0 (Herbicidal ratio of 5% or lower (almost no effect))

Q: And the “effect on crop b (directly sowed rice plant), grade 0-5” value [2]?
A: 5 (Herbicidal ratio of 90% or more (almost completely withered))

Q: And the “Herbicidal effect grade, F: Digitaria ciliaris” value [3]?
A: 5 (Herbicidal ratio of 90% or more (almost completely withered))

Q: And the “Herbicidal effect grade, H: Echinochloa crus-galli var. crus-galli” value [4]?
A: 5 (Herbicidal ratio of 90% or more (almost completely withered))

Q: And the “Herbicidal effect grade, I: Avena fatua” value [5]?
A: 5 (Herbicidal ratio of 90% or more (almost completely withered))

Q: What about the “Herbicidal effect grade, J: Alopecurus myosuroides” value [6] of the same molecule?
A: 5 (Herbicidal ratio of 90% or more (almost completely withered))

Q: And the “Herbicidal effect grade, K: Lolium multiflorum Lam.” value [7]?
A: 5 (Herbicidal ratio of 90% or more (almost completely withered))

Q: What about the “Effect on crop grade, b: directly sowed rice plant” value [8] of the same molecule?
A: 0 (Herbicidal ratio of 5% or lower (almost no effect))

Q: And the “Effect on crop grade, f: beet” value [9]?
A: 0 (Herbicidal ratio of 5% or lower (almost no effect))

Q: And the “Effect on crop grade, g: rapeseed” value [10]?
A: 3 (Herbicidal ratio of 40% or higher and lower than 70%)

Q: And the “F: Digitaria ciliaris, herbicidal effect (criteria of Test Example 1)” value [11]?
A: 5 (Herbicidal ratio of 90% or more (almost completely withered))

Q: What about the “I: Avena fatua, herbicidal effect (criteria of Test Example 1)” value [12] of the same molecule?
A: 5 (Herbicidal ratio of 90% or more (almost completely withered))

Q: And the “K: Lolium multiflorum Lam., herbicidal effect (criteria of Test Example 1)” value [13]?
A: 5 (Herbicidal ratio of 90% or more (almost completely withered))

Q: What about the “L: Apera spica-venti, herbicidal effect (criteria of Test Example 1)” value [14] of the same molecule?
A: 5 (Herbicidal ratio of 90% or more (almost completely withered))

Q: And the “M: Abutilon theophrasti, herbicidal effect (criteria of Test Example 1)” value [15]?
A: 3 (Herbicidal ratio of 40% or higher and lower than 70%)

Q: What about the “N: Amaranthus retroflexus, herbicidal effect (criteria of Test Example 1)” value [16] of the same molecule?
A: 0 (Herbicidal ratio of 5% or lower (almost no effect))

Q: And the “O: Chenopodium album, herbicidal effect (criteria of Test Example 1)” value [17]?
A: 5 (Herbicidal ratio of 90% or more (almost completely withered))

Q: And the “P: Stellaria media, herbicidal effect (criteria of Test Example 1)” value [18]?
A: 4 (Herbicidal ratio of 70% or higher and lower than 90%)

Q: And the “Q: Galium spurium, herbicidal effect (criteria of Test Example 1)” value [19]?
A: 4 (Herbicidal ratio of 70% or higher and lower than 90%)

Q: What about the “R: Veronica persica, herbicidal effect (criteria of Test Example 1)” value [20] of the same molecule?
A: 5 (Herbicidal ratio of 90% or more (almost completely withered))

Q: What about the “e: wheat, effect on crop (criteria of Test Example 1)” value [21] of the same molecule?
A: 4 (Herbicidal ratio of 70% or higher and lower than 90%)

Q: And the “g: rapeseed, effect on crop (criteria of Test Example 1)” value [22]?
A: 4 (Herbicidal ratio of 70% or higher and lower than 90%)

Q: `CON=C(C)C(C)C1CC(O)=C(c2c(C)cc(Br)cc2OC)C1=O` (stereo not drawn) [6-113] was tested. Which “Herbicidal effect grade, C: Monochoria vaginalis” value [1] did it give?
A: 3 (Herbicidal ratio of 40% or higher and lower than 70%)

Q: What about the “effect on crop b (directly sowed rice plant), grade 0-5” value [2] of the same molecule?
A: 5 (Herbicidal ratio of 90% or more (almost completely withered))

Q: And the “Herbicidal effect grade, F: Digitaria ciliaris” value [3]?
A: 5 (Herbicidal ratio of 90% or more (almost completely withered))

Q: What about the “Herbicidal effect grade, H: Echinochloa crus-galli var. crus-galli” value [4] of the same molecule?
A: 5 (Herbicidal ratio of 90% or more (almost completely withered))

Q: And the “Herbicidal effect grade, I: Avena fatua” value [5]?
A: 0 (Herbicidal ratio of 5% or lower (almost no effect))

Q: What about the “Herbicidal effect grade, J: Alopecurus myosuroides” value [6] of the same molecule?
A: 5 (Herbicidal ratio of 90% or more (almost completely withered))

Q: What about the “Herbicidal effect grade, K: Lolium multiflorum Lam.” value [7] of the same molecule?
A: 5 (Herbicidal ratio of 90% or more (almost completely withered))

Q: What about the “Effect on crop grade, b: directly sowed rice plant” value [8] of the same molecule?
A: 5 (Herbicidal ratio of 90% or more (almost completely withered))

Q: And the “Effect on crop grade, f: beet” value [9]?
A: 0 (Herbicidal ratio of 5% or lower (almost no effect))

Q: And the “Effect on crop grade, g: rapeseed” value [10]?
A: 1 (Herbicidal ratio of 5% or higher and lower than 20%)

Q: And the “F: Digitaria ciliaris, herbicidal effect (criteria of Test Example 1)” value [11]?
A: 5 (Herbicidal ratio of 90% or more (almost completely withered))

Q: And the “I: Avena fatua, herbicidal effect (criteria of Test Example 1)” value [12]?
A: 5 (Herbicidal ratio of 90% or more (almost completely withered))

Q: What about the “K: Lolium multiflorum Lam., herbicidal effect (criteria of Test Example 1)” value [13] of the same molecule?
A: 5 (Herbicidal ratio of 90% or more (almost completely withered))

Q: And the “L: Apera spica-venti, herbicidal effect (criteria of Test Example 1)” value [14]?
A: 5 (Herbicidal ratio of 90% or more (almost completely withered))

Q: And the “M: Abutilon theophrasti, herbicidal effect (criteria of Test Example 1)” value [15]?
A: 0 (Herbicidal ratio of 5% or lower (almost no effect))

Q: What about the “N: Amaranthus retroflexus, herbicidal effect (criteria of Test Example 1)” value [16] of the same molecule?
A: 0 (Herbicidal ratio of 5% or lower (almost no effect))

Q: What about the “O: Chenopodium album, herbicidal effect (criteria of Test Example 1)” value [17] of the same molecule?
A: 2 (Herbicidal ratio of 20% or higher and lower than 40%)

Q: What about the “P: Stellaria media, herbicidal effect (criteria of Test Example 1)” value [18] of the same molecule?
A: 0 (Herbicidal ratio of 5% or lower (almost no effect))

Q: What about the “Q: Galium spurium, herbicidal effect (criteria of Test Example 1)” value [19] of the same molecule?
A: 0 (Herbicidal ratio of 5% or lower (almost no effect))

Q: And the “R: Veronica persica, herbicidal effect (criteria of Test Example 1)” value [20]?
A: 0 (Herbicidal ratio of 5% or lower (almost no effect))

Q: And the “e: wheat, effect on crop (criteria of Test Example 1)” value [21]?
A: 5 (Herbicidal ratio of 90% or more (almost completely withered))

Q: And the “g: rapeseed, effect on crop (criteria of Test Example 1)” value [22]?
A: 4 (Herbicidal ratio of 70% or higher and lower than 90%)
